Holding throughout (format): functional
Assay [1] is described as follows: M. tuberculosis H37Rv growth inhibitors, H37Rv strain (AID 1626).
The target of assay [2] is T1, Mitochondrial peptide methionine sulfoxide reductase (Bos taurus, UniProt P54149).
T1 sequence (P54149 whole entry): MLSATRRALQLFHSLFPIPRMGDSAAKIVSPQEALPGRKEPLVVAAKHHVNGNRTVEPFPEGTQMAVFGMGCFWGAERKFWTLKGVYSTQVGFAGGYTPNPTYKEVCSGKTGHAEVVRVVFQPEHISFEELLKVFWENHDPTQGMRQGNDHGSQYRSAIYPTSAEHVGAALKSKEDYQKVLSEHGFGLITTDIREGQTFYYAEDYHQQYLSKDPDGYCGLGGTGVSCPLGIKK
The experiment in a line: Absorbance-based biochemical high throughput dose response assay for activators of Methionine sulfoxide reductase A (MsrA).

The target of assay [3] is Ras and Rab interactor 1/Tyrosine-protein kinase ABL1 (Homo sapiens, UniProt P00519+Q13671).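 Note: biochemical TR-FRET dose-response test measuring inhibition of binding between Rin1 and Abl proteins.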
Ras and Rab interactor 1/Tyrosine-protein kinase ABL1, sequence (P00519 whole entry): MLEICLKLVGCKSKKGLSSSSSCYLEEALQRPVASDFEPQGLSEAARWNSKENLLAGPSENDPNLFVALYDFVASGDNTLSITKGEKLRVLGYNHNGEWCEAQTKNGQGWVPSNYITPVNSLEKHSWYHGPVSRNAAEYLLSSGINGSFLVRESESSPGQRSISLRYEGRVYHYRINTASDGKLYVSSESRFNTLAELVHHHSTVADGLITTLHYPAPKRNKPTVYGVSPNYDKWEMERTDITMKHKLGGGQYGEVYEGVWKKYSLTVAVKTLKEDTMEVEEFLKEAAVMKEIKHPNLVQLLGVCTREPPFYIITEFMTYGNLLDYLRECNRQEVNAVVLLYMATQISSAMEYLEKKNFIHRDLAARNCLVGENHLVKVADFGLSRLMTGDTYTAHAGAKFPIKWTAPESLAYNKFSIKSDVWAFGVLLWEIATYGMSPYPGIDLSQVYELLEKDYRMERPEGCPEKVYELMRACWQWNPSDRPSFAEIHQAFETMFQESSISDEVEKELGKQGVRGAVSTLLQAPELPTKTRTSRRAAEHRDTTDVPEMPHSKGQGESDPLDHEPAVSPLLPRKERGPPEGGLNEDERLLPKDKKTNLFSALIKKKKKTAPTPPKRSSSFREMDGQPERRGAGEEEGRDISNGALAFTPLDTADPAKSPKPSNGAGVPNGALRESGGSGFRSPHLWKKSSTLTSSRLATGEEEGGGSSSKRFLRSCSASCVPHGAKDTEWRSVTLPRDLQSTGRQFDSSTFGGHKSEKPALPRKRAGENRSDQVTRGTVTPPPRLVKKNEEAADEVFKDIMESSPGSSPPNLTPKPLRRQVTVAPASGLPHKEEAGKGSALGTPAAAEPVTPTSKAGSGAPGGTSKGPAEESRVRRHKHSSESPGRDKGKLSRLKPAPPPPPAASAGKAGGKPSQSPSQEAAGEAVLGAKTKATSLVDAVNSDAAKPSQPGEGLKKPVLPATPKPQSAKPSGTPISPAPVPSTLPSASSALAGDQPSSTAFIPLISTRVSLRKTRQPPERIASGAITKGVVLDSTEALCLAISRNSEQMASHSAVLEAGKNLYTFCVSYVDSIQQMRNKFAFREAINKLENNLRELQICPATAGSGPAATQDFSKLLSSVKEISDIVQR
Ras and Rab interactor 1/Tyrosine-protein kinase ABL1, sequence (Q13671 whole entry): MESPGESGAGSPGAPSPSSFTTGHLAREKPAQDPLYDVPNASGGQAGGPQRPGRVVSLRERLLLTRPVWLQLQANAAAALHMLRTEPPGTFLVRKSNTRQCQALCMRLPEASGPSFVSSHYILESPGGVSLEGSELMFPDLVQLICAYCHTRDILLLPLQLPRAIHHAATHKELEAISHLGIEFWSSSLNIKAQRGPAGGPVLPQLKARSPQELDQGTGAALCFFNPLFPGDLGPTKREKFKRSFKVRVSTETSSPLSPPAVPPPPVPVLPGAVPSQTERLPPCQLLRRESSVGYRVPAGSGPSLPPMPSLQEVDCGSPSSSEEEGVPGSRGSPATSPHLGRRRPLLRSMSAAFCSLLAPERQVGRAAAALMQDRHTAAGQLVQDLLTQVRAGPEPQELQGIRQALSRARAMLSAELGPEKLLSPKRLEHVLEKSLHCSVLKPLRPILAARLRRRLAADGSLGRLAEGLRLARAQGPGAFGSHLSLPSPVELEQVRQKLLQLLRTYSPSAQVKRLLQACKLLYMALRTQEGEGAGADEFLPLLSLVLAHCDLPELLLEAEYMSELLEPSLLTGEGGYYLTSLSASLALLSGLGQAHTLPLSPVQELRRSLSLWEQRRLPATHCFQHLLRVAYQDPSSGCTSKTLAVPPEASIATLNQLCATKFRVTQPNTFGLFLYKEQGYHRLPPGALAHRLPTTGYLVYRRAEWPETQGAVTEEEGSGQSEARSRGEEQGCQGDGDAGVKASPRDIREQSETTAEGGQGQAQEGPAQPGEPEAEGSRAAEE
The target of assay [4] is T2, Sentrin-specific protease 8 (Homo sapiens, UniProt Q96LD8).
T2 sequence (Q96LD8 whole entry): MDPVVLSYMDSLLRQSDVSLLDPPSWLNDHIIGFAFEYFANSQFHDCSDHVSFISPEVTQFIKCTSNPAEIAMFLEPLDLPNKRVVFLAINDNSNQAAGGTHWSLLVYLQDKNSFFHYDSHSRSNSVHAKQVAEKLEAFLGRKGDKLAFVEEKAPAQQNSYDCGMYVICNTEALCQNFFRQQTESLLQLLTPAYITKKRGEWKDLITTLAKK
The experiment in a line: inhibition of human SENP8 cleavage activity – biochemical, luminescence, SAR follow-up (AID 504501).

Assay [5] addresses T3, Caspase-3 (Homo sapiens, UniProt P42574).
T3 sequence (P42574 whole entry): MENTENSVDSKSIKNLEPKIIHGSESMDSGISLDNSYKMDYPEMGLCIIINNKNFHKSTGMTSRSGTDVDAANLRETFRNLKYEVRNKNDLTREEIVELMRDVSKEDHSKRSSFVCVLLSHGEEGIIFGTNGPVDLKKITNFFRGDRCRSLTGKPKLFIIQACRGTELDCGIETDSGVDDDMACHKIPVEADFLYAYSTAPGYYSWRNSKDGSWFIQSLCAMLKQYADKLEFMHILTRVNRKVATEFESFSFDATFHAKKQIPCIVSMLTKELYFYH
The experiment in a line: SAR Analysis of small molecule inhibitors of Sentrin-specific proteases (SENPs) using a Caspase-3 Selectivity assay. [Related pubchem assays (depositor defined):AID2540, AID2599, AID434973, AID489001].

In assay [6] the target is T4, Sentrin-specific protease 6 (Homo sapiens, UniProt Q9GZR1).
T4 sequence (Q9GZR1 whole entry): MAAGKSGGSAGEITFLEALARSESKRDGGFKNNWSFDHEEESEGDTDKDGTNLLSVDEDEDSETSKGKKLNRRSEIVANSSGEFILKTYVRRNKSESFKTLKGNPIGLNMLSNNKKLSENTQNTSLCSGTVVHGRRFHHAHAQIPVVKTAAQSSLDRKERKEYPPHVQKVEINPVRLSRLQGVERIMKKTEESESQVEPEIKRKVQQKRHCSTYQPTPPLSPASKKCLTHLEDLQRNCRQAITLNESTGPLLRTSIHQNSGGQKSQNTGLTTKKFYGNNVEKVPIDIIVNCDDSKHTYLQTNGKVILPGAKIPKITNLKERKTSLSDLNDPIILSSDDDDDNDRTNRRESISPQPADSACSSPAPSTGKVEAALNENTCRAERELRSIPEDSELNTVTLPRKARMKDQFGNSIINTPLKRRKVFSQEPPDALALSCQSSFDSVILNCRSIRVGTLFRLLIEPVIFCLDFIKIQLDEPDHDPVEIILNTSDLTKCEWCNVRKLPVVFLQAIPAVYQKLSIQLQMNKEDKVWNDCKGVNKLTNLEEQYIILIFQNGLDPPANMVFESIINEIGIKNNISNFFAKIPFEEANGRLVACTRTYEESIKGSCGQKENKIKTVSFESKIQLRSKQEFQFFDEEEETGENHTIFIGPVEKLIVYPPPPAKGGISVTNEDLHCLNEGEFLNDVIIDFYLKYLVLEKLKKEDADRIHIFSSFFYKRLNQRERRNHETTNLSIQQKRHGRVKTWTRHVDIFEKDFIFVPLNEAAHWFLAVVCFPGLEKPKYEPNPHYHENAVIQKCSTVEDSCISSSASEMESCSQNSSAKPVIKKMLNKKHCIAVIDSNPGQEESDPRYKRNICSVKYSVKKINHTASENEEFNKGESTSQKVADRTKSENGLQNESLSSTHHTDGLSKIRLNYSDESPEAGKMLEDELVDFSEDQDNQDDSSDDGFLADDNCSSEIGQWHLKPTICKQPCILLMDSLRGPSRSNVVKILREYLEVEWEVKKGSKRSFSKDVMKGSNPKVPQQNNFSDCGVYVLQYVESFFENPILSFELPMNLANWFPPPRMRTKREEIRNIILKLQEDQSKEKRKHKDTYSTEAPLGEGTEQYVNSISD
The assay can be described thus: SAR Analysis of small molecule inhibitors of Sentrin-specific protease 6 (SENP6) using a Luminescent assay. [Related pubchem assays (depositor defined):AID2582, AID2599].

In assay [7] the target is T5, Sentrin-specific protease 7 (Homo sapiens, UniProt Q9BQF6).
T5 sequence (Q9BQF6 whole entry): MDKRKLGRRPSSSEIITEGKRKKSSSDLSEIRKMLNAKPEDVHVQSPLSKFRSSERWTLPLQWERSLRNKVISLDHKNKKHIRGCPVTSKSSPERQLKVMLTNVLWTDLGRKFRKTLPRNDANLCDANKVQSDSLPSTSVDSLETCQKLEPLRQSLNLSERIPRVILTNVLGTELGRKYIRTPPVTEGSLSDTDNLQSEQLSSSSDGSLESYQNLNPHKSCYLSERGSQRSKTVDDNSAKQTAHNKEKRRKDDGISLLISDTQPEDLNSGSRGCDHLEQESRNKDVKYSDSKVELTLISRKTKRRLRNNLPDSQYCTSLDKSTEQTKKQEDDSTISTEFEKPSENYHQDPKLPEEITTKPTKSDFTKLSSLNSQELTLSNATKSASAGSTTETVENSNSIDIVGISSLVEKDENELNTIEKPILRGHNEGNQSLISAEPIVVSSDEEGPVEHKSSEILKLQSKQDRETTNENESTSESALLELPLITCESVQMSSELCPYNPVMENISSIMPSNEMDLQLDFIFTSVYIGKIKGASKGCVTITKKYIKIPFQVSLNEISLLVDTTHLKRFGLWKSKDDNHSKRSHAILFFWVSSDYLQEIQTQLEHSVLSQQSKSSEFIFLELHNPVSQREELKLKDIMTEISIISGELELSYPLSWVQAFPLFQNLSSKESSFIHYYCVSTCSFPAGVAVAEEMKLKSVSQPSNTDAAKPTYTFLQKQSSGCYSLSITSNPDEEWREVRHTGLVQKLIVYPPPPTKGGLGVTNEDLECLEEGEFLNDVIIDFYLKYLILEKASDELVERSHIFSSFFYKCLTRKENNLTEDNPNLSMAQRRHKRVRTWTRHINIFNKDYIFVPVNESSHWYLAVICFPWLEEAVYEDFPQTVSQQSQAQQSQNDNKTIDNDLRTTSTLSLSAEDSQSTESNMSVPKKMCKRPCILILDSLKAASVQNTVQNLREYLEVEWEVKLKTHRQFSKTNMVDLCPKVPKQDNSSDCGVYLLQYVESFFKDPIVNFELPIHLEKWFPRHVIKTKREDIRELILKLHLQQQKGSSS
The experiment in a line: inhibition of human SENP7 cleavage activity – biochemical, luminescence, SAR follow-up (AID 504497).

Assay [8] addresses T3, Caspase-3. The experiment in a line: inhibition of recombinant caspase-3 activity – biochemical, luminescence, set 2, selectivity assay for SENP protease inhibitor project, SAR follow-up (AID 588599).
Assay [9] addresses T2, Sentrin-specific protease 8. The assay can be described thus: inhibition of sentrin protease 8 – biochemical, luminescence, set 2, SAR follow-up (AID 588601).
In assay [10] the target is T5, Sentrin-specific protease 7. The assay can be described thus: inhibition of human SENP7 cleavage activity – biochemical, luminescence, set 2, SAR follow-up (AID 588600).
Assay [11] has as its target T4, Sentrin-specific protease 6. The assay can be described thus: inhibition of human SENP6 catalytic domain – biochemical, luminescence, set 2, SAR follow-up (AID 588598).
For assay [12], the target named is T6, Apoptotic protease-activating factor 1 (Homo sapiens, UniProt O14727).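 Note: caspase-3 cleavage of fluorogenic Rh110 DEVD substrate downstream of apoptosome activation.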
T6 sequence (O14727 whole entry): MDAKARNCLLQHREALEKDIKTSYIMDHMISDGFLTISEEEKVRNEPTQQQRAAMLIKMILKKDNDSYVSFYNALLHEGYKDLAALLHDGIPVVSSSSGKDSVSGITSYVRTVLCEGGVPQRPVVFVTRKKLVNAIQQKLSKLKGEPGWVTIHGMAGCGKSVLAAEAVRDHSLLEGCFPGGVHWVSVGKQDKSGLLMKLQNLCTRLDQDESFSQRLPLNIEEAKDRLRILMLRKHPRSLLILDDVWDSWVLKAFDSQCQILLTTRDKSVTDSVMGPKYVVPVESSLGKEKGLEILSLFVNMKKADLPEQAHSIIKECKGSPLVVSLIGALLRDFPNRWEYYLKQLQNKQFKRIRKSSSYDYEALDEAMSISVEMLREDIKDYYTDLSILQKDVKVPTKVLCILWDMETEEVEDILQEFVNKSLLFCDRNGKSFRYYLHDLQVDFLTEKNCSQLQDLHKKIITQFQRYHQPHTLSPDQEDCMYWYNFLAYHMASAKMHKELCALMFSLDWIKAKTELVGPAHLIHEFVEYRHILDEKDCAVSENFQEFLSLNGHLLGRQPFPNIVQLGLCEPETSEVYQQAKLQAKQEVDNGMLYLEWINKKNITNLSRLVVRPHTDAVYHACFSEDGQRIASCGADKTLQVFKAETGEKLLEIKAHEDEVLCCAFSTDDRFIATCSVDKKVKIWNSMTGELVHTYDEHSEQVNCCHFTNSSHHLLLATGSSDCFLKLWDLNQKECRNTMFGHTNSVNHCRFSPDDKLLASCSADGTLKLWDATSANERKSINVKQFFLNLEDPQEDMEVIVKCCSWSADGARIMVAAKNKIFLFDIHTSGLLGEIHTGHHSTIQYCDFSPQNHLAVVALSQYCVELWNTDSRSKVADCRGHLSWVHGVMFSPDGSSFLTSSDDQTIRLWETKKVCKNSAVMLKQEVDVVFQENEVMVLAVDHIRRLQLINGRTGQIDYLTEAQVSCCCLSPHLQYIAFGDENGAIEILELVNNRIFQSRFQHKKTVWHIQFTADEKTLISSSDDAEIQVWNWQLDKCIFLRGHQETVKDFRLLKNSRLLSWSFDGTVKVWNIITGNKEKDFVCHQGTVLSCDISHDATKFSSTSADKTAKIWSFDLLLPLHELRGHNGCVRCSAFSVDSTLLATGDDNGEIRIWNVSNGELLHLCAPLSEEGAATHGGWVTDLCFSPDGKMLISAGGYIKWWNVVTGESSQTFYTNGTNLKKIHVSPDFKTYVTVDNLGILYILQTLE
The assay can be described thus: SAR analysis of small molecule Activators of Apaf-1 in a Fluorescent assay. The note with it: read-out: EC50_Mean.

For a further assay, the target named is T7, Aurora kinase A (Homo sapiens, UniProt O14965).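 Note: value from the Navigating the Kinome kinase panel profiling, panel entry STK6.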
T7 sequence (O14965 whole entry): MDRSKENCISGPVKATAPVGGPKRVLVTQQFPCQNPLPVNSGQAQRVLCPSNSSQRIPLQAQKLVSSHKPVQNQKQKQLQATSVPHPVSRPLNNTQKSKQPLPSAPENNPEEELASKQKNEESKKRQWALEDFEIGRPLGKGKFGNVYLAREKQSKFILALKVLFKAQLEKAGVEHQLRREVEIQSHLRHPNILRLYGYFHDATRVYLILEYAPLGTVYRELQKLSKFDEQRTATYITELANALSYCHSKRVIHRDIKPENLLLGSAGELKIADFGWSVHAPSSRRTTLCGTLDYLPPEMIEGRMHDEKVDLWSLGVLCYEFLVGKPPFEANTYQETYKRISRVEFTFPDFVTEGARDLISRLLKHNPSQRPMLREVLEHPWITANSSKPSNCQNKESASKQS

For assay [13], the target named is Vascular endothelial growth factor receptor 2 (Homo sapiens, UniProt P35968).
Vascular endothelial growth factor receptor 2, sequence (P35968 whole entry): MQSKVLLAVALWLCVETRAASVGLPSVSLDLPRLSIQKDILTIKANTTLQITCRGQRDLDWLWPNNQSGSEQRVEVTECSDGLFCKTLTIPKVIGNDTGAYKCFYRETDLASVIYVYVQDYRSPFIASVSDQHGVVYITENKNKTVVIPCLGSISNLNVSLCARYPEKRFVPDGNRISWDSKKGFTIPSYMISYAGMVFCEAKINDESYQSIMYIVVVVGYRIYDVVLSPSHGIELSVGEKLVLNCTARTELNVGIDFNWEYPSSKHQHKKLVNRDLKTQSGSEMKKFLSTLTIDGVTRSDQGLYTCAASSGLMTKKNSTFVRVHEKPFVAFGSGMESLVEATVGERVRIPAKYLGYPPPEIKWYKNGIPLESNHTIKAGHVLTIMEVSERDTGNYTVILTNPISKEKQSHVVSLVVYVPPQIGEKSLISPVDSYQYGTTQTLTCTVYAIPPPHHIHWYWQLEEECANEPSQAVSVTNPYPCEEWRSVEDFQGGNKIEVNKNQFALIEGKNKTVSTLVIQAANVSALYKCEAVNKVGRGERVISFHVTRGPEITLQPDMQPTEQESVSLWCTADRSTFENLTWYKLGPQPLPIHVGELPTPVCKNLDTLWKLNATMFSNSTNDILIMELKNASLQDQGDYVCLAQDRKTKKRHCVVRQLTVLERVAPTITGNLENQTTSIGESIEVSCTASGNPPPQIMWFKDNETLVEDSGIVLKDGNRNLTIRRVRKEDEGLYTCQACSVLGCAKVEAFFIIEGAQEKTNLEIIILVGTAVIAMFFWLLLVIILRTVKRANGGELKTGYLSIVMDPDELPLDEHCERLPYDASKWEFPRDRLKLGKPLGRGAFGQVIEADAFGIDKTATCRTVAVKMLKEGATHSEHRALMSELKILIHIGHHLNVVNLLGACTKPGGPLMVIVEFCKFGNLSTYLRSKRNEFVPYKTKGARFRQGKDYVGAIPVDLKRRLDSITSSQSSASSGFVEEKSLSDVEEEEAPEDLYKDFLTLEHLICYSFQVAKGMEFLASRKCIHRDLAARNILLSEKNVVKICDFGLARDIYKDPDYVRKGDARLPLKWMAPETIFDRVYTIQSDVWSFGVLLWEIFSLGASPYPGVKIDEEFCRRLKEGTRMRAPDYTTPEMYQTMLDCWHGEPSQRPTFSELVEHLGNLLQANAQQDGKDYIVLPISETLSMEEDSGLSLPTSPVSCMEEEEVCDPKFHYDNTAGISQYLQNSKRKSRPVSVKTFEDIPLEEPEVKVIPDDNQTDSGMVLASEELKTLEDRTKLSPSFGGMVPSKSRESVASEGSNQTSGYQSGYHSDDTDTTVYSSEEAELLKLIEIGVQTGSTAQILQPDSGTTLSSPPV
A further assay addresses Aurora kinase B (Homo sapiens, UniProt Q96GD4).

Each structure is given as a SMILES string. Activity calls are given as the source filed them. Cut-off read from the data, not from the text of the source, for most assays here: actives have a measured IC50 and inactives only a lower limit.

Aurora kinase B, sequence (Q96GD4 whole entry): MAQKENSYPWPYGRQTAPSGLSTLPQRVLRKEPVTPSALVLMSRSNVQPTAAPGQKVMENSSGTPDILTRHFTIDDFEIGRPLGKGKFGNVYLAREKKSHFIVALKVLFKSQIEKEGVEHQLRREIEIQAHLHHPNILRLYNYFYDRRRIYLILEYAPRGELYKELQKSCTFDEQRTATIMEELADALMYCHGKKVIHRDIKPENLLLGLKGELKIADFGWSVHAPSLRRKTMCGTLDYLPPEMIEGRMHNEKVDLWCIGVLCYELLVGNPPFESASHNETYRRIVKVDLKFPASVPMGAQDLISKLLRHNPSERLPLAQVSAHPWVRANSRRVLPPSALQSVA

Consider `CCOc1ccc(NC(C(=O)Nc2cccc(C(C)=O)c2)c2ccccc2)cc1` (stereo not drawn), for which the IC50 in assay [1] is > 100 µM (active). Also, in assay [2], the EC50 was > 104 µM (inactive).

In the case of `CCC(C)(C)n1nnnc1C(c1cccnc1)N1CCCc2ccccc21` (stereo not drawn), in assay [3], the IC50 is 6.9 µM (active).

`CN(C)S(=O)(=O)c1ccc2nc(NC(=O)c3c(F)cccc3F)sc2c1`: the IC50 (in [4]; on Caspase-3 [5]; in assay [6]; in assay [7]) was > 99 µM (inactive) each time.

As to `O=C(Nc1nc2ccc(Cl)cc2s1)c1sccc1Cl`, the IC50 in [4] is 0.77 µM (active); at Caspase-3 [8], 0.755 µM (active); in assay [9], 9.04 µM (active); on Caspase-3 [5], 0.73 µM (active); in [10], 6.06 µM (active); in assay [6], 0.78 µM (active). In addition, the IC50 was 15.4 µM (active) in [11] and 0.91 µM (active) in assay [7].

Consider `O=C(N/N=C\c1c[nH]c2ccccc12)c1cccs1`, for which the IC50 at Caspase-3 [8] was 75.5 µM (active); in assay [9] it was 40.8 µM (active); in [10] it was 34.4 µM (active); in assay [11], 43.3 µM (active).

Turning to `COc1cc(N2CC(C(=O)O)CC2=O)c(OC)cc1Cl` (stereo not drawn), the EC50 in assay [12] is > 100 µM (inactive).

As for `CCCS(=O)(=O)Nc1ccc2c(c1)C(=NO)c1ccccc1-2`, the inhibition constant (Ki) on Aurora kinase A is 2 µM (active); in assay [13], 1 µM (active); on Aurora kinase B it was 0.01 µM (active).

For the origin of these results see ChEMBL document CHEMBL1201862, “PubChem BioAssay data set” (2004).
